# Experimental data as given in patent US8846670B2, “1,2,3,4-tetrahydro-pyrimido(1,2-a)pyrimidin-6-one derivatives, preparation thereof, and pharmaceutical use thereof” (priority 2009, dated 2014).
# Columns and labels:
# [1] = system: AKT protein phosphorylated on serine 473 (P-AKT-S473) in PC3 human prostate carcinoma line; test: Study of pAKT expression in PC3 human prostate carcinoma cells measured by the MSD Multi-spot Biomarker Detection technique (Test B); type: cell-based; details: MSD sandwich immunoassay, 1 to 2 h incubation, absolute IC50, mean of 2 experiments
# Procedure: The inhibitory activity of the molecules on AKT phosphorylation is measured either by western blotting using the technique described below, or by the MSD Multi-spot Biomarker detection technique from Meso Scale Discovery also described below.
# Study of pAKT Expression in PC3Human Prostate Carcinoma Cells Measured by the MSD Multi-Spot Biomarker Detection Technique from Meso Scale Discovery (Test B):
# The primary antibody specific for P-AKT-S473 (Kit #K151CAD) is coated onto an electrode in each well of the 96-well plates of the MSD kit: after the addition of a protein lysate to each well, the signal is visualised by adding a secondary detection antibody labelled with an electrochemiluminescent compound. The procedure followed is that described in the kit.
# On day 2, the cells are incubated in the presence or absence of the test products for 1 to 2 h at 37° C. in the presence of 5% of CO2. The molecules, diluted in dimethyl sulphoxide (DMSO Sigma #D2650), are added from a 20-times concentrated stock solution, the final percentage of DMSO being 0.1%.
# After this incubation, the cells are lysed for the preparation of the proteins. […] At this stage, the plates containing the lysates can be frozen at −20° C. or at −80° C.
# The wells of the 96-well plates of the MSD kit are saturated for 1 h at ambient temperature with the blocking solution of the MSD kit. Four washes are carried out with 150 μl of Tris Wash Buffer of the MSD kit. The lysates previously prepared are transferred into the 96-well multi-spot plates of the MSD kit and incubated for 1 h at ambient temperature, with shaking. Four washes are carried out with 150 μl of Tris Wash Buffer of the MSD kit. 25 μl of the MSD sulfo-tag detection antibody solution are added to the wells and incubated for 1 h at ambient temperature, with shaking. Four washes are carried out with 150 μl of Tris Wash Buffer of the MSD kit. 150 μl of Read Buffer of the MSD kit are added to the wells and the plates are read immediately on the S12400 instrument from Meso Scale Discovery.
# The instrument measures a signal for each well. Wells without cells and containing the lysis buffer serve to determine the background noise that will be subtracted from all the measurements (min). The wells containing cells in the absence of product and in the presence of 0.1% DMSO are considered to be the 100% signal (max). The percentage inhibition is calculated for each concentration of test product according to the following formula: (1−((test−min)/(max−min)))×100.
# 2 independent experiments make it possible to calculate the mean of the IC50 values.
# [2] = system: translocation of the LC3 protein in Hela GFP-LC3 cells; test: Study of the translocation of the LC3 protein in Hela human cells, measured by image analysis cytometry (Test C, autophagy); type: cell-based; details: 2 h, Hela GFP-LC3 cells with LC3 granulations, EBSS + 10 μM hydroxychloroquine, absolute IC50
# Procedure: The inhibitory activity of the molecules on autophagy is measured by the translocation of the LC3 protein from the cytoplasm to the autophagosomes. For this, Hela cells were transfected with a vector encoding the chimeric protein GFP-LC3. A Hela clone stably expressing the GFP-LC3 protein was selected.
# Study of the Translocation of the LC3 Protein in Hela Human Cells, Measured by Image Analysis Cytometry (Test C):
# On day 2, the cells are washed twice with EBSS (Sigma #E3024). The cells are then incubated in EBSS, 10 μM of hydroxychloroquine and test products for 2 h at 37° C. in the presence of 5% CO2. The molecules are diluted in dimethyl sulphoxide (DMSO Sigma #D2650), the final DMSO percentage being 0.1%.
# After this incubation, the cells are fixed with 4% paraformaldehyde (Sigma #HT501128 4 L) for 10 min. […] The 96-well plates are then read with the iCyte image analysis cytometer (Compucyte).
# Two independent experiments make it possible to calculate the mean of the IC50 values.
# [3] = Homo sapiens, PC-3, P-AKT-S473 in PC3 cells
compound,measurement,setting,value
"C[C@H](c1ccc(Br)cc1)N1c2nc(N3CCOCC3)cc(=O)n2CC[C@H]1C(F)(F)F (single isomer, unassigned) [Example 11, (8S)-9-[(1S or 1R)-1-(4-bromophenyl)ethyl]-2-(morpholin-4-yl)-8-(trifluoromethyl)-6,7,8,9-tetrahydro-4H-pyrimido[1,2-a]pyrimidin-4-one]",IC50,[1]; [3],46 nM
same,IC50,"[2]; Homo sapiens, HeLa",319 nM
"CC(c1ccc(F)cc1)N1c2nc(N3CCOCC3)cc(=O)n2CC[C@H]1C(F)(F)F (single isomer, unassigned) [Example 33, (8S)-9-[(1R or 1S)-1-(4-fluorophenyl)ethyl]-2-(morpholin-4-yl)-8-(trifluoromethyl)-6,7,8,9-tetrahydro-4H-pyrimido[1,2-a]pyrimidin-4-one]",IC50,[1]; [3],24 nM
same,IC50,"[2]; Homo sapiens, HeLa",221 nM
"CC(c1ccc(F)cc1)N1c2nc(N3CCOCC3)cc(=O)n2CC[C@H]1C(F)(F)F (single isomer, unassigned) [Example 34, (8S)-9-[(1R or 1S)-1-(4-fluorophenyl)ethyl]-2-(morpholin-4-yl)-8-(trifluoromethyl)-6,7,8,9-tetrahydro-4H-pyrimido[1,2-a]pyrimidin-4-one]",IC50,[1]; P-AKT-S473 in PC3 cells,22 nM
same,IC50,[2],35 nM
"CC(c1ccccc1F)N1c2nc(N3CCOCC3)cc(=O)n2CC[C@H]1C(F)(F)F (single isomer, unassigned) [Example 38, (8S)-9-[(1R or 1S)-1-(2-fluorophenyl)ethyl]-2-(morpholin-4-yl)-8-(trifluoromethyl)-6,7,8,9-tetrahydro-4 H-pyrimido[1,2-a]pyrimidin-4-one]",IC50,[1]; P-AKT-S473 in PC3 cells,2 nM
same,IC50,"[2]; Homo sapiens, HeLa",167 nM
"CC(c1ccccc1F)N1c2nc(N3CCOCC3)cc(=O)n2CC[C@H]1C(F)(F)F (single isomer, unassigned) [Example 39, (8S)-9-[(1R or 1S)-1-(2-fluorophenyl)ethyl]-2-(morpholin-4-yl)-8-(trifluoromethyl)-6,7,8,9-tetrahydro-4 H-pyrimido[1,2-a]pyrimidin-4-one]",IC50,[1]; P-AKT-S473 in PC3 cells,5 nM
same,IC50,[2],237 nM
"COc1ccc([C@H](O)CN2c3nc(N4CCOCC4)cc(=O)n3CC[C@H]2C(F)(F)F)cc1 [Example 7, (8S)-9-[(2S)-2-hydroxy-2-(4-methoxyphenyl)ethyl]-2-(morpholin-4-yl)-8-(trifluoromethyl)-6,7,8,9-tetrahydro-4H-pyrimido[1,2-a]pyrimidin-4-one]",IC50,[1]; [3],1 nM
same,IC50,"[2]; Homo sapiens, HeLa",5 nM
"O=c1cc(N2CCOCC2)nc2n1CC[C@@H](C(F)(F)F)N2c1cccc(F)c1 [Example 14, (8S)-9-(3-fluorophenyl)-2-(morpholin-4-yl)-8-(trifluoromethyl)-6,7,8,9-tetrahydro-4H-pyrimido[1,2-a]pyrimidin-4-one]",IC50,[1]; [3],15 nM
same,IC50,"[2]; Homo sapiens, HeLa",337 nM
"O=c1cc(N2CCOCC2)nc2n1CC[C@@H](C(F)(F)F)N2c1cccnc1 [Example 19, (S)-2-morpholin-4-yl-9-pyridin-3-yl-8-trifluoromethyl-6,7,8,9-tetrahydropyrimido[1,2-a]pyrimidin-4-one]",IC50,[1]; [3],39 nM
same,IC50,"[2]; Homo sapiens, HeLa",> 1000 nM
"Cc1ccc(N2c3nc(N4CCOCC4)cc(=O)n3CC[C@H]2C(F)(F)F)cc1 [Example 21, (8S)-9-(4-methylphenyl)-2-(morpholin-4-yl)-8-(trifluoro-methyl)-6,7,8,9-tetrahydro-4H-pyrimido[1,2-a]pyrimidin-4-one]",IC50,[1]; [3],24 nM
same,IC50,"[2]; Homo sapiens, HeLa",157 nM
"O=c1cc(N2CCOCC2)nc2n1CC[C@@H](C(F)(F)F)N2Cc1ccccc1Cl [Example 22, (8S)-9-(2-chlorobenzyl)-2-(morpholin-4-yl)-8-(trifluoro-methyl)-6,7,8,9-tetrahydro-4H-pyrimido[1,2-a]pyrimidin-4-one]",IC50,[1]; [3],23 nM
same,IC50,"[2]; Homo sapiens, HeLa",785 nM
"O=c1cc(N2CCOCC2)nc2n1CC[C@@H](C(F)(F)F)N2Cc1cccc(F)c1 [Example 23, (8S)-9-(3-fluorobenzyl)-2-(morpholin-4-yl)-8-(trifluoromethyl)-6,7,8,9-tetrahydro-4H-pyrimido[1,2-a]pyrimidin-4-one]",IC50,[1]; [3],24 nM
same,IC50,"[2]; Homo sapiens, HeLa",663 nM
COc1cccc(CCN2c3nc(N4CCOCC4)cc(=O)n3CC[C@H]2C(F)(F)F)c1 [Example 25],IC50,[1]; [3],7 nM
same,IC50,"[2]; Homo sapiens, HeLa",38 nM
"COc1cccc(CN2c3nc(N4CCOCC4)cc(=O)n3CC[C@H]2C(F)(F)F)c1 [Example 26, (8S)-9-(3-methoxybenzyl)-2-(morpholin-4-yl)-8-(trifluoromethyl)-6,7,8,9-tetrahydro-4H-pyrimido[1,2-a]pyrimidin-4-one]",IC50,[1]; [3],18 nM
same,IC50,"[2]; Homo sapiens, HeLa",270 nM
"O=C(c1ccccc1F)N1c2nc(N3CCOCC3)cc(=O)n2CC[C@H]1C(F)(F)F [Example 28, (8S)-9-[(2-fluorophenyl)carbonyl]-2-(morpholin-4-yl)-8-(trifluoromethyl)-6,7,8,9-tetrahydro-4H-pyrimido[1,2-a]pyrimidin-4-one]",IC50,[1]; [3],33 nM
same,IC50,"[2]; Homo sapiens, HeLa",> 10000 nM
"O=c1cc(N2CCOCC2)nc2n1CC[C@@H](C(F)(F)F)N2Cc1cc(F)cc(F)c1 [Example 29, (8S)-9-(3,5-difluorobenzyl)-2-(morpholin-4-yl)-8-(trifluoro-methyl)-6,7,8,9-tetrahydro-4H-pyrimido[1,2-a]pyrimidin-4-one]",IC50,[1]; [3],22 nM
same,IC50,"[2]; Homo sapiens, HeLa",> 1000 nM
"O=c1cc(N2CCOCC2)nc2n1CC[C@@H](C(F)(F)F)N2Cc1ccc(F)cc1F [Example 30, (8S)-9-(2,4-difluorobenzyl)-2-(morpholin-4-yl)-8-(trifluoro-methyl)-6,7,8,9-tetrahydro-4H-pyrimido[1,2-a]pyrimidin-4-one]",IC50,[1]; [3],43 nM
same,IC50,"[2]; Homo sapiens, HeLa",212 nM
"O=c1cc(N2CCOCC2)nc2n1CC[C@@H](C(F)(F)F)N2Cc1ccc(F)c(F)c1F [Example 31, (8S)-2-(morpholin-4-yl)-9-(2,3,4-trifluorobenzyl)-8-(trifluoro-methyl)-6,7,8,9-tetrahydro-4H-pyrimido[1,2-a]pyrimidin-4-one]",IC50,[1]; [3],150 nM
same,IC50,"[2]; Homo sapiens, HeLa",557 nM
"O=c1cc(N2CCOCC2)nc2n1CC[C@@H](C(F)(F)F)N2Cc1csc2ccc(Cl)cc12 [Example 32, (8S)-9-[(5-chloro-1-benzothiophen-3-yl)methyl]-2-(morpholin-4-yl)-8-(trifluoromethyl)-6,7,8,9-tetrahydro-4H-pyrimido[1,2-a]pyrimidin-4-one]",IC50,[1]; [3],33 nM
same,IC50,"[2]; Homo sapiens, HeLa",780 nM
"Cc1cccc(N2c3nc(N4CCOCC4)cc(=O)n3CC[C@H]2C(F)(F)F)c1 [Example 35, (8S)-9-(3-methylphenyl)-2-(morpholin-4-yl)-8-(trifluoro-methyl)-6,7,8,9-tetrahydro-4H-pyrimido[1,2-a]pyrimidin-4-one]",IC50,[1]; [3],20 nM
same,IC50,"[2]; Homo sapiens, HeLa",650 nM
"O=c1cc(N2CCOCC2)nc2n1CC[C@@H](C(F)(F)F)N2c1ccc(Cl)cc1 [Example 36, (8S)-9-(4-chlorophenyl)-2-(morpholin-4-yl)-8-(trifluoro-methyl)-6,7,8,9-tetrahydro-4H-pyrimido[1,2-a]pyrimidin-4-one]",IC50,[1]; [3],18 nM
same,IC50,"[2]; Homo sapiens, HeLa",157 nM
"O=c1cc(N2CCOCC2)nc2n1CC[C@@H](C(F)(F)F)N2c1ccc(C(F)(F)F)cc1 [Example 37, (8S)-2-(morpholin-4-yl)-8-(trifluoromethyl)-9-[4-(trifluoro-methyl)phenyl]-6,7,8,9-tetrahydro-4H-pyrimido[1,2-a]pyrimidin-4-one]",IC50,[1]; [3],18 nM
same,IC50,"[2]; Homo sapiens, HeLa",270 nM
"O=c1cc(N2CCOCC2)nc2n1CC[C@@H](C(F)(F)F)N2CCc1cccc(F)c1 [Example 40, (8S)-9-[2-(3-fluorophenyl)ethyl]-2-(morpholin-4-yl)-8-(trifluoromethyl)-6,7,8,9-tetrahydro-4 H-pyrimido[1,2-a]pyrimidin-4-one]",IC50,[1]; [3],3 nM
same,IC50,"[2]; Homo sapiens, HeLa",82 nM
